What all share (format): cell-based, human
In assay [1] the test system is HUVEC. Conditions: for Activity in Proliferation: Yes/No summary. Here is the method: Several assays were used to test the peptides discussed in the Examples herein. A colorimetric based proliferation assay using WST-1 (Roche, 11644807001) proliferation reagent was carried out using HUVEC cells. 2000 cells/well were plated in 96-well plates and allowed to adhere overnight. On the following day, the media was exchanged with fully supplemented media containing peptides or equivalent DMSO vehicle for the controls. Three days later the media containing the peptides was replaced with serum-free EBM-2 media containing WST-1 reagent and the plates were incubated for four hours as per the manufacturer's recommendations. Changes in color, due to the formazan dye resulted from the cleavage of the tetrazolium salt WST-1 by the mitochondrial succinate-tetrazolium reductase, were read on a Victor V fluorescence plate reader (Perkin Elmer, MA) by measuring the absorbance at 450 nm Dose response curves of percent live cells (in comparison to untreated cells but incubated in complete media with 0.2% DMSO) were created. Assays were performed in at least two independent replicates and each replicate was performed using three experimental triplicates.

For assay [2], the system named is HUVEC. Conditions: HUVEC; for Activity in Adhesion: Yes/No summary, active = inhibitory potential greater than 30%; for Adhesion Inhibition (100 uM): 100 uM peptide. Here is the method: Similar to the migration assays, the inhibition activity of the peptide in cellular adhesion was assessed using the RT-CIM technology. In this case, 25,000 cells/well were plated in 16 wells E-plates (Roche, Basel Switzerland) in the presence or absence of the peptide. The adhesion was monitored over time (3 hours) by measuring changes in the electrical impedance, which is a direct measure of the cells adhering on the electrodes. […] Assays were performed in at least two independent replicates and each replicate was performed using two experimental duplicates.

For assay [3], the system named is HUVEC. Briefly: HUVEC migration assay (RT-CIM). Conditions: for Activity in Migration: Yes/No summary, active = inhibitory potential greater than 30%; for Migration Inhibition (50 uM): 50 uM peptide. The procedure: The inhibitory potential of the peptides was measured using a real time migration assay system based on electrical impedance (RT-CIM, ACEA Biosciences, CA). CIM 16 well plates (Roche, 05665817001) are composed of a top and bottom chamber separated by a microporous (8 μm) polycarbonate membrane. The membrane was coated with fibronectin (20 μg/mL), and 45,000 cells/well in serum free media with or without peptides were added to the top compartment. Media with chemoattractant (i.e., fully supplemented EBM-2) was added to the bottom compartment of the chamber and the plate was incubated at 37° C. for 20 hours. The sensors integrated on the bottom side of the membrane monitor and continuously record changes in impedance as the cells move through the membrane. The RT-CIM technology allows for easy quantification of cell migration by monitoring the cell index derived from the measured impedances. Assays were performed in at least two independent replicates and each replicate was performed using two experimental duplicates.

The test system of assay [4] is HUVEC. Nature of the assay: HUVEC tube formation assay on Matrigel. Conditions: for Tube formation Inhibition (100 uM): 100 uM peptide; for Activity in Tube formation: Yes/No summary; for inhibition of tube formation: concentration not given. The procedure: The compounds also were tested for their ability to inhibit tube formation, a process critical in angiogenesis. Endothelial cells spontaneously form a network of tubes when plated on extracts of extracellular matrix. This in vitro assay combines aspects of adhesion and migration and it is routinely used in angiogenesis research (Oliveira-Ferrer et al., 2008). The ability to inhibit tube formation is a comprehensive assessment of the anti-angiogenic potential. The protocol was described by Arnaoutova et al. (2009) and it consists of plating HUVEC on top of basement membrane extract and after incubation at 37° C. the cells naturally rearrange themselves in a network of tubes. Thus, 50 μL/well of Matrigel (BD Biosciences, San Jose, Calif.) was plated in a cold 96 well plate and incubated at 37° C. for 30 min for polymerization. 15,000 cells/well were added to the top of the gel and incubated in complete media in the presence or absence of peptide for 19 hours. Images were captured using the CCD Sensicam mounted on a Nikon microscope (Eclipse T-100). Assays were performed in at least two independent replicates and each replicate was performed using three experimental replicates and one image of a randomly chosen field was acquired per well.

pIC50: −log10 of the molar value. Square brackets hold non-standard residues; d marks the D form. Ends that are not written are not given here. Peptide text beside a SMILES is read from it. Phe(4-Cl) = N[C@@H](Cc1ccc(Cl)cc1)C(=O)O; Nle = CCCC[C@H](N)C(=O)O; Abu = CC[C@H](N)C(=O)O

As for `CC[C@H](NC(=O)[C@H](Cc1ccccc1)NC(=O)[C@H](CCSC)NC(=O)[C@H](Cc1ccccc1)NC(=O)[C@@H]1CCCN1C(=O)[C@H](CCSC)NC(=O)[C@@H](NC(=O)[C@H](CO)NC(=O)[C@H](Cc1ccccc1)NC(=O)[C@H](CCCNC(=N)N)NC(=O)[C@H](CCCNC(=N)N)NC(=O)[C@@H](N)CC(C)C)[C@@H](C)O)C(=O)N[C@@H](CC(N)=O)C(=O)N[C@H](C(=O)N[C@@H](CC(N)=O)C(=O)N[C@H](C(=O)O)C(C)C)[C@@H](C)CC` [SP2006, LRRFSTMPFMFAbuNINV] (H-LRRFSTMPFMF[Abu]NINV-OH; N-terminus and C-terminus assumed), in the assay with HUVEC [1] (HUVEC), the “inhibition of proliferation” value is listed as “did not inhibit proliferation” and the “Activity in Proliferation” value is “No”. In addition, in the assay on HUVEC [2] (50 μM peptide), the “inhibition of adhesion at 50 μM” value is given as “inhibition of adhesion”. Further, the “Activity in Adhesion” value with HUVEC [2] is “Yes”. In addition, the “Activity in Migration” value with HUVEC [3] is “No”. The “migration inhibition” value with HUVEC [3] (concentration not given) stood at 18%. For the same molecule, in the assay on HUVEC [4], the “Tube formation Inhibition (100 uM)” value is reported as “Complete”, the “Activity in Tube formation” value is “Yes” and the “inhibition of tube formation” value is listed as “Inhibition of tube formation”. Further, the “inhibition of tube formation (FIG. 20)” value with HUVEC [4] (high dose, 100 nM) is on record as “active at inhibiting tube formation”.

As to `CC[C@H](NC(=O)[C@H](Cc1ccccc1)NC(=O)[C@H](CCSC)NC(=O)[C@H](Cc1ccccc1)NC(=O)[C@@H]1CCCN1C(=O)[C@H](CCSC)NC(=O)[C@@H](NC(=O)[C@H](CO)NC(=O)[C@H](Cc1ccccc1)NC(=O)[C@H](CCCNC(=N)N)NC(=O)[C@H](CCCNC(=N)N)NC(=O)[C@@H](N)CC(C)C)[C@@H](C)O)C(N)=O` [SP2007, LRRFSTMPFMFAbu] (H-LRRFSTMPFMF[Abu]-NH2; N-terminus assumed), in the assay with HUVEC [1] (HUVEC), the “Activity in Proliferation” value is on record as “No”. For the same molecule, in the assay on HUVEC [1] (HUVEC, summary tables 2-4, 6, 7), the “Proliferation Inhibition (IC50 in uM)” value is listed as “Inactive”. Further, in the assay on HUVEC [2], the “Adhesion Inhibition (100 uM)” value is 11% and the “Activity in Adhesion” value was “No”. Further, the “inhibition of adhesion” value in the assay with HUVEC [2] (concentration not given) is reported as “absence of activity”. Moreover, in the assay with HUVEC [3], the “Migration Inhibition (50 uM)” value was “Inactive” and the “Activity in Migration” value is “No”. Also, the “inhibition of migration” value with HUVEC [3] (concentration not given) is given as “absence of activity”. In addition, in the assay with HUVEC [4], the “Tube formation Inhibition (100 uM)” value is on record as “Inactive” and the “Activity in Tube formation” value was “No”.

For `CC[C@H](NC(=O)[C@H](Cc1ccccc1)NC(=O)[C@H](CCSC)NC(=O)[C@H](C)NC(=O)[C@@H]1CCCN1C(=O)[C@H](CCSC)NC(=O)[C@@H](NC(=O)[C@H](CO)NC(=O)[C@H](Cc1ccccc1)NC(=O)[C@H](CCCNC(=N)N)NC(=O)[C@H](CCCNC(=N)N)NC(=O)[C@@H](N)CC(C)C)[C@@H](C)O)C(=O)N[C@@H](CC(N)=O)C(=O)N[C@H](C(=O)N[C@@H](CC(N)=O)C(=O)N[C@@H](CC(N)=O)C(=O)N[C@H](C(=O)N[C@@H](CC)C(=O)N[C@@H](CC(N)=O)C(=O)N[C@@H](Cc1ccccc1)C(N)=O)C(C)C)[C@@H](C)CC` [SP2015, LRRFSTMPAMF(Abu)NINNV(Abu)NF] (H-LRRFSTMPAMF[Abu]NINNV[Abu]NF-NH2; N-terminus assumed), in the assay on HUVEC [2], the “Adhesion Inhibition (100 uM)” value stood at 96%. Moreover, in the assay with HUVEC [3], the “Migration Inhibition (50 uM)” value was determined as 100%. Further, in the assay with HUVEC [4], the “Tube formation Inhibition (100 uM)” value is on record as “Complete” and the “inhibition of tube formation” value is recorded as “significant inhibition of tube formation”.

With `CC[C@H](NC(=O)[C@H](Cc1ccccc1)NC(=O)[C@H](C)NC(=O)[C@H](Cc1ccccc1)NC(=O)[C@@H]1CCCN1C(=O)[C@H](CCSC)NC(=O)[C@@H](NC(=O)[C@H](CO)NC(=O)[C@H](Cc1ccccc1)NC(=O)[C@H](CCCNC(=N)N)NC(=O)[C@H](CCCNC(=N)N)NC(=O)[C@@H](N)CC(C)C)[C@@H](C)O)C(=O)N[C@@H](CC(N)=O)C(=O)N[C@H](C(=O)N[C@@H](CC(N)=O)C(=O)N[C@@H](CC(N)=O)C(=O)N[C@H](C(=O)N[C@@H](CC)C(=O)N[C@@H](CC(N)=O)C(=O)N[C@@H](Cc1ccccc1)C(N)=O)C(C)C)[C@@H](C)CC` [SP2016, LRRFSTMPFAF(Abu)NINNV(Abu)NF] (H-LRRFSTMPFAF[Abu]NINNV[Abu]NF-NH2; N-terminus assumed), the “Adhesion Inhibition (100 uM)” value in the assay with HUVEC [2] turned out to be 96%. Also, the “Migration Inhibition (50 uM)” value in the assay with HUVEC [3] stood at 99.6%.

With `CC[C@H](NC(=O)[C@H](C)NC(=O)[C@H](CCSC)NC(=O)[C@H](Cc1ccccc1)NC(=O)[C@@H]1CCCN1C(=O)[C@H](CCSC)NC(=O)[C@@H](NC(=O)[C@H](CO)NC(=O)[C@H](Cc1ccccc1)NC(=O)[C@H](CCCNC(=N)N)NC(=O)[C@H](CCCNC(=N)N)NC(=O)[C@@H](N)CC(C)C)[C@@H](C)O)C(=O)N[C@@H](CC(N)=O)C(=O)N[C@H](C(=O)N[C@@H](CC(N)=O)C(=O)N[C@@H](CC(N)=O)C(=O)N[C@H](C(=O)N[C@@H](CC)C(=O)N[C@@H](CC(N)=O)C(=O)N[C@@H](Cc1ccccc1)C(N)=O)C(C)C)[C@@H](C)CC` [SP2017, LRRFSTMPFMA(Abu)NINNV(Abu)NF] (H-LRRFSTMPFMA[Abu]NINNV[Abu]NF-NH2; N-terminus assumed), in the assay with HUVEC [2], the “Adhesion Inhibition (100 uM)” value is given as 95.5%%. In the assay with HUVEC [3], the “Migration Inhibition (50 uM)” value is on record as 100%.

`CCCC[C@H](NC(=O)[C@H](Cc1ccccc1)NC(=O)[C@@H]1CCCN1C(=O)[C@H](CCSC)NC(=O)[C@@H](NC(=O)[C@H](CO)NC(=O)[C@H](Cc1ccccc1)NC(=O)[C@H](CCCNC(=N)N)NC(=O)[C@H](CCCNC(=N)N)NC(=O)[C@@H](N)CC(C)C)[C@@H](C)O)C(=O)N[C@@H](Cc1ccccc1)C(=O)N[C@@H](CC)C(=O)N[C@@H](CC(N)=O)C(=O)N[C@H](C(=O)N[C@@H](CC(N)=O)C(=O)N[C@@H](CC(N)=O)C(=O)N[C@H](C(=O)N[C@@H](CC)C(=O)N[C@@H](CC(N)=O)C(=O)N[C@@H](Cc1ccccc1)C(N)=O)C(C)C)[C@@H](C)CC` [SP2018, LRRFSTMPF(Nle)F(Abu)NINNV(Abu)NF] (H-LRRFSTMPF[Nle]F[Abu]NINNV[Abu]NF-NH2; N-terminus assumed): in the assay with HUVEC [2], the “Adhesion Inhibition (100 uM)” value turned out to be 90.9%%. For the same molecule, the “Migration Inhibition (50 uM)” value in the assay on HUVEC [3] turned out to be 100%.

`CC[C@H](NC(=O)[C@H](Cc1ccc(Cl)cc1)NC(=O)[C@H](CCSC)NC(=O)[C@H](Cc1ccccc1)NC(=O)[C@@H]1CCCN1C(=O)[C@H](CCSC)NC(=O)[C@@H](NC(=O)[C@H](CO)NC(=O)[C@H](Cc1ccccc1)NC(=O)[C@H](CCCNC(=N)N)NC(=O)[C@H](CCCNC(=N)N)NC(=O)[C@@H](N)CC(C)C)[C@@H](C)O)C(=O)N[C@@H](CC(N)=O)C(=O)N[C@H](C(=O)N[C@@H](CC(N)=O)C(=O)N[C@@H](CC(N)=O)C(=O)N[C@H](C(=O)N[C@@H](CC)C(=O)N[C@@H](CC(N)=O)C(=O)N[C@@H](Cc1ccccc1)C(N)=O)C(C)C)[C@@H](C)CC` [SP2019, LRRFSTMPFM(4-ClPhe)(Abu)NINNV(Abu)NF] (H-LRRFSTMPFM[Phe(4-Cl)][Abu]NINNV[Abu]NF-NH2; N-terminus assumed): in the assay with HUVEC [2], the “Adhesion Inhibition (100 uM)” value is 95.9%. The “Migration Inhibition (50 uM)” value in the assay with HUVEC [3] was 98%.

With LRRFSTMPFMFGNINNVGNF-NH2 [SP2002], the negative logarithm of the IC50 (pIC50) (usually −log10 of the IC50, conventionally taken in molar units) in the assay on HUVEC [1] is 4.50. Besides, the “Migration Inhibition (50 uM)” value with HUVEC [3] came to 87.9%. In addition, the “Tube formation Inhibition (100 uM)” value with HUVEC [4] is “Complete”.

(Values after US9056923B2, “Mimetic peptides derived from collagen type IV and their use for treating angiogenesis- and lymphagiogenesis-dependent diseases” (THE JOHNS HOPKINS UNIVERSITY, priority 2010, dated 2015).)
